According to US7435431B2, “Method for controlling body weight in estrogen-insufficient women” (Abbott Laboratories, priority 2004, dated 2008):

What was measured:
Assay type in all cases: in vivo, rat
[1] = test system: ovariectomized (OVX) rats; test: Experiment III: serum, urine and bone mineral and biochemical measures
Description: (§1) After five days of acclimatization, study animals were randomly assigned to one of 15 groups (n=10/group) and placed in individual cages. Rats were either sham-operated (SHAM) or ovariectomized (OVX) and fed casein-based diets for forty days. To ensure that sufficient bone loss has occurred in the OVX animals, bone mineral density was assessed via Dual Energy X-ray Absorptiometry (DEXA) prior to treatment. Groups 1 and 2 were fed casein-based diets throughout the entire length of the study and served as the control groups. Treatments were initiated for Groups 3-15 forty days post ovariectomy surgery and followed for 60 days. Bone mineral density was assessed before and after treatments. […] Urine was collected in acid-washed tubes, acidified with 0.03 ml of 6 mol/L of HCl per ml of urine and the total volume was measured. […] Initial and weekly body weights were measured. Sham animals were fed ad libitum and their precise food intakes were measured every three days. Before each feeding, the food remaining was weighed and the amount ingested was calculated. […]
(§2) The composition of the semi-purified casein-based diets are described in the following table. […] Sham animals were fed ad libitum and their precise food intakes were measured every three days. Before each feeding, the food remaining was weighed and the amount ingested was calculated. […]

[2] = test system: ovariectomized (OVX) rats; test: Experiment III: bone mineral density and bone mineral content (DEXA)
Description: (§3) After five days of acclimatization, study animals were randomly assigned to one of 15 groups (n=10/group) and placed in individual cages. Rats were either sham-operated (SHAM) or ovariectomized (OVX) and fed casein-based diets for forty days. To ensure that sufficient bone loss has occurred in the OVX animals, bone mineral density was assessed via Dual Energy X-ray Absorptiometry (DEXA) prior to treatment. Groups 1 and 2 were fed casein-based diets throughout the entire length of the study and served as the control groups. Treatments were initiated for Groups 3-15 forty days post ovariectomy surgery and followed for 60 days. Bone mineral density was assessed before and after treatments. Two days prior to the termination of the study, rats were placed in individual metabolic cages and urine was collected from 18:00 h-6:00 h. During this period, the rats had no access to food. Urine was collected in acid-washed tubes, acidified with 0.03 ml of 6 mol/L of HCl per ml of urine and the total volume was measured. At the end of the study, the rats were anesthetized with ketomine and xylazine (intraperitoneally; 100 mg and 5 mg/kg body weight, respectively) and exsanguinated. Blood was collected, serum separated and aliquoted in small samples. All urine and plasma samples were frozen at −20° C. until analyses. Femurs and 3-5 lumbar spine were dissected out for bone analyses. Initial and weekly body weights were measured. Sham animals were fed ad libitum and their precise food intakes were measured every three days. Before each feeding, the food remaining was weighed and the amount ingested was calculated. Rats in the other groups were pair-fed to the mean intake of the sham animals and had free access to deionized water.
(§4) The design was a randomized, prospective, single-blind, positive controlled, parallel study. Control groups were fed a casein-based diet. Treatment groups were fed semi-purified diets containing casein, fructooligosaccharides, whole dried plum powder or dried plum polyphenol solids, dried plum juice solids, dried plum puree solids, dried plum skin solids or raisin solids or fig solids or date solids or blueberry solids or HMB. The treatment groups are outlined in following table:
(§5) One hundred fifty, (n=10/group) ninety day old Harlan Sprague-Dawley, 210 gm, female rats were purchased from Harlan Sprague Dawley Inc. (Indianapolis, Ind.). Upon arrival at the institution, rats were individually housed in stainless steel wire mesh cages in an environmentally controlled animal laboratory at 25° C. with a 12 h light-dark cycle. The rats had free access to deionized water and semi-purified diets. They were handled according to National Institutes of Health guidelines for humane treatment of experimental animals.
The composition of the semi-purified casein-based diets are described in the following table. To ensure equivalency, the diets were assayed for carbohydrate, protein, fat, calcium and phosphorus content prior to the feeding protocol. All diets were prepared to be isonitrogenous, isocaloric and equivalent in calcium and phosphorus content. The diets consisted of approximately 22% protein, 67% carbohydrate and 11% fat. The treatment diets also contained 7.5% or 5% (w/w) dried plum powder (Sunsweet Growers, Inc., Pleasanton, Calif.), or 7.5% (w/w) dried plum solids from juice concentrate (Sunsweet Growers, Inc., Pleasanton, Calif.), or 7.5% (w/w) dried plum solids from puree (Sunsweet Growers, Inc., Pleasanton, Calif.), or 7.5% (w/w) dried plum solids from pulp/skins (Sunsweet Growers, Inc., Pleasanton, Calif.), or dried plum polyphenols equivalent to 7.5% (w/w) dried plum powder, or 7.5% (w/w) raisin solids (Mid America), or 7.5% (w/w) fig solids (Mid America), or 7.5% (w/w) date solids (Mid America), or 7.5% (w/w) blueberry solids (Mid America), or 0.25% (w/w) HMB (Metabolic Technologies, Inc., Ames, Iowa) and 5% or 2% (w/w) short chain fructooligosaccharides (NutraFlora®, FOS Golden Technologies, Inc). […]

[3] = test system: ovariectomized (OVX) rats; test: Experiment III: micro-computed tomography
Description: as §3, §4, §5
The composition of the semi-purified casein-based diets are described in the following table. To ensure equivalency, the diets were assayed for carbohydrate, protein, fat, calcium and phosphorus content prior to the feeding protocol. All diets were prepared to be isonitrogenous, isocaloric and equivalent in calcium and phosphorus content. The diets consisted of approximately 22% protein, 67% carbohydrate and 11% fat. […]

[4] = Experiment III: body weight gain, fat gain and food intake
Description: as §1, §2

## CC(C)(O)CC(=O)O [HMB, beta-hydroxy beta methylbutyrate]
[1]
  Serum IGF-1 levels compared to OVX-control: significant increases
[2]
  effects on BMD: no significant effects
  reversal of osteopenia: did not reverse established osteopenia
[2]; OVX rats
  Bone mineral content (LS Mean ± SE) Femur: 0.4155 ± 0.00996
  Bone mineral content (LS Mean ± SE) Spine: 0.1187 ± 0.00419
  Bone mineral content (LS Mean ± SE) Whole body: 9.7590 ± 0.1323
  Bone mineral density (Mean ± SE) Femur: 0.2198 ± 0.00293b
  Bone mineral density (Mean ± SE) Spine: 0.2341 ± 0.0035bc
[2]; OVX rats, baseline to final
  Change in Bone mineral density (from Baseline) Whole body: 0.00298 ± 0.00144ab
[2]; OVX rats, casein-based diets
  Bone mineral density (Mean ± SE) Whole body: 0.1599 ± 0.0016b
[3]
  Bone Volume/Total Volume (Ranked) Mean ± SE: 0.1141 ± 0.00658b
  Connective Density (Ranked) Mean ± SE: 32.865 ± 2.472b
  Structural Model Index (Ranked) Mean ± SE: 1.931 ± 0.04093a
  Trabecular No. (Ranked) Mean ± SE: 1.649 ± 0.078c 1/mm
  Trabecular separation (Ranked) Mean ± SE: 0.6555 ± 0.03361a mm
[4]; OVX rats, pair-fed to SHAM
  Body Weight Gain during Treatment period Mean ± SE: 29.0 ± 6.9
[4]; compared to OVX-control
  fat gain during the treatment period: significantly less fat gain
